{"source": "patent US6852863B2", "about": "“Metabolites of (3-{[4-tert-butyl-benzyl)-(pyridine-3-sulfonyl)-amino]-methyl}-phenoxy)-acetic acid” (Pfizer Inc., priority 2002, dated 2005)", "key": {"[1]": {"experiment": "Metabolism of 14C-parent in monkey liver microsomes", "assay_type": "in vitro ADME", "conditions": "20 μM 14C-parent, NADPH, 30 minutes, 37° C.; HPLC radiochromatogram peak", "description": "(§1) Human (HL-mix 12), rat, monkey and dog liver microsomes were prepared by differential centrifugation using standard procedures. Prior to use, liver microsomes were thawed on ice and reconstituted using 100 mM potassium phosphate pH 7.4. [^14C]-(3-{[4-tert-butyl-benzyl)-(pyridine-3-sulfonyl)-amino]-methyl}-phenoxy)-acetic acid was dissolved 100 mM potassium phosphate pH 7.4 at a final substrate concentration of 20 μM. Samples were pre-incubated for 3 min with microsomes (CYP 450; 0.5 μM) at 37° C. in a shaking water bath. Incubations were initiated with the addition of 100 μl cofactor (1.1 mM NADPH, 10 mM MgCl2) per 1 ml of incubation mixture. Incubations were stopped after 30 minutes by the addition of an equal volume of cold acetonitrile.\n(§2) Metabolite quantification was performed by measuring the areas of individually separated HPLC peaks using the β-RAM (IN/US, Win-flow). […]\n(§3) Identification of the metabolites was performed using a Finnigan TSQ 7000 triple quadrupole mass spectrometer equipped with an API-2 electrospray interface. […] The β-RAM response was recorded as a real time analog signal by the MS data collection system. The collected data from the radioactivity and MS detectors were separated by the dwell volume of flow from the MS to the radioactivity detector (corresponding to a dwell time of about 0.2 min.). […]"}, "[2]": {"biological_target": "T1, rat EP2 prostaglandin E2 receptor (Rattus norvegicus, UniProt Q62928)", "T1 construct": "This full length receptor is used to prepare 293S cells expressing the EP2 receptor; expressed in transfected cells; membranes used in the assay", "T1 sequence (Q62928 whole entry)": "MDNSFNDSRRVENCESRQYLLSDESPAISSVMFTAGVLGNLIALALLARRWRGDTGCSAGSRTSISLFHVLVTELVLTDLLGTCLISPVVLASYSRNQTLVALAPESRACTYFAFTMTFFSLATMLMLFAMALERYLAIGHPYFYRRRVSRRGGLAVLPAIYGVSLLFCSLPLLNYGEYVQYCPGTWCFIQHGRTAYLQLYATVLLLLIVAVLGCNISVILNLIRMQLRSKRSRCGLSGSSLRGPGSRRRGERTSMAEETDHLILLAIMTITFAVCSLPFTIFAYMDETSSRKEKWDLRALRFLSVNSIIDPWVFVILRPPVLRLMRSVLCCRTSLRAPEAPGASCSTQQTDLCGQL", "experiment": "Rat EP2 receptor binding assay (displacement of 3H-prostaglandin E2)", "conditions": "293S cell membranes expressing rat EP2, 3 nM 3H-prostaglandin E2, 1 hour at 25° C.", "from_the_text": "Rat EP2 Recptor Binding Assay\nAssay for Binding to Prostaglandin E2 Receptors\nThe full length EP2 receptor is made as disclosed in Nemoto et al., Prostaglandins and other Lipid Mediators, 1997, 54, 713-725. This full length receptor is used to prepare 293S cells expressing the EP2 receptor.\n293S cells expressing the rat EP2 prostaglandin E2 receptor are generated according to methods known to those skilled in the art. Typically, PCR (polymerase chain reaction) primers corresponding to the 5′ and 3′ ends of the published full length receptor are made according to the well known methods disclosed above and are used in an RT-PCR reaction using the total RNA from rat kidney as a source. […]\nMembrane Preparation: All operations are performed at 4° C. […] Pelleted membranes are resuspended to 3-10 mg protein per ml, protein concentration being determined of the method of Bradford [Bradford, M., Anal. Biochem., 72, 248 (1976)]. […]\nBinding Assay: Frozen membranes prepared as above are thawed and diluted to 1 mg protein per ml in Buffer A above. […] To determine the amount of ^3H-prostaglandin bound to the membranes, the dried filters are placed into plastic bags with scintillation fluid and counted in a LKB 1205 Betaplate reader (Wallac, Gaithersburg, Md.). […]"}, "[3]": {"experiment": "Metabolism of 14C-parent in dog liver microsomes", "assay_type": "in vitro ADME", "conditions": "20 μM 14C-parent, NADPH, 30 minutes, 37° C.; HPLC radiochromatogram peak", "description": "as §1, §2, §3"}}, "data": [{"smiles": "CC(C)(CO)c1ccc(CN(Cc2cccc(OCC(=O)O)c2)S(=O)(=O)c2cccnc2)cc1", "note": "[Metabolite M4, (3-{[[4-(2-hydroxy-1,1-dimethyl-ethyl)-benzyl]-(pyridine-3-sulfonyl)-amino]-methyl}-phenoxy)-acetic acid]", "values": [{"measurement": "Percent of Radioactivity, Monkey liver microsomes", "setting": "[1]", "value": 47.3, "unit": "%"}, {"measurement": "IC50", "setting": "[2]", "value": 0.17, "unit": "µM"}, {"measurement": "Percent of Radioactivity, Dog liver microsomes", "setting": "[3]", "value": 11.5, "unit": "%"}]}]}
